This is an account of results in ChEMBL document CHEMBL1649504, “Activity of SQ641, a capuramycin analog, in a murine model of tuberculosis” (2009).

Broadly, the MIC is the lowest concentration found to suppress growth.

Values after ≈ are worked out from the molar mass of the structure shown.

Format in all cases: functional
Assay [1] relates to Mycobacterium tuberculosis. In words: Antimycobacterial activity against Mycobacterium tuberculosis.
Assay [2] relates to Mycobacterium tuberculosis. In words: Antibacterial activity against Mycobacterium tuberculosis H37Rv infected in C57BL/6 mouse assessed as […] in lung at 25 mg/kg, iv administered 2 times per week measured post last dose.
For assay [3], the system named is Mycobacterium tuberculosis. In words: Antibacterial activity against Mycobacterium tuberculosis H37Rv infected in C57BL/6 mouse assessed as […] in lung at 50 mg/kg, iv administered 2 times per week measured post last dose.
The test system of assay [4] is Mycobacterium tuberculosis. In words: Antibacterial activity against Mycobacterium tuberculosis H37Rv infected in C57BL/6 mouse assessed as […] in lung at 5 mg/kg administered for 1 week via oral gavage measured post last dose.
The test system of assay [5] is Mycobacterium tuberculosis. In words: Antibacterial activity against Mycobacterium tuberculosis H37Rv infected in C57BL/6 mouse assessed as […] in lung at 50 mg/kg, ip administered 5 times per week measured post last dose. Conditions: route intraperitoneal.
Another assay concerns Mycobacterium avium. In words: Antimycobacterial activity against Mycobacterium avium.
The subject of assay [6] is Mycobacterium tuberculosis. The assay can be described thus: Antibacterial activity against Mycobacterium tuberculosis H37Rv infected in C57BL/6 mouse assessed as […] in lung at 100 mg/kg, ip administered 5 times per week measured post last dose. Conditions: route intraperitoneal.

`CCCCCCCCCC(=O)O[C@@H]1[C@H](OC)[C@@H]([C@@H](CC(N)=O)O[C@H]2OC(C(=O)N[C@H]3CCC[C@@H](C)NC3=O)=C[C@@H](O)[C@H]2O)O[C@H]1n1ccc(=O)[nH]c1=O`: the MIC in assay [1] was 1 µg/mL (≈ 1.33 µM); in the assay with Mycobacterium avium it was 0.016 µg/mL (≈ 0.0213 µM). The log10cfu worked out at 6.1 in assay [2]; 6.01 in assay [3]; 5.1 in assay [4]; 6.7 in assay [5]; 6.15 in assay [6].
